Measured values: US20240050359A1, “COSMETIC USES OF A HIPPOPHAE RHAMNOIDES CAKE HYDROLYSATE” (BASF Beauty Care Solutions France SAS, priority 2020, published 2024)

Tests used:
Format in all cases: cell-based
[1] = system: fibroblasts from the papilla of human hair follicles; assay: ATP production by papilla fibroblasts grown as aggregates; settings: capsaicin 10 μM
Experimental: (§1) Materials and method: A suspension composed of fibroblasts from the papilla of human hair follicles and basal culture medium, containing 0.05% v/v growth factor cocktail and the presence or absence of the H. rhamnoides hydrolyzate to be tested, was centrifuged for 5 minutes at 200×g to form aggregates. Control conditions were produced by adding 0.05% v/v growth factor cocktail (ethanol EtOH control) and adding capsaicin (10 μm) as a cell sensitizer (capsaicin control) to the basal culture medium. The aggregates were incubated at a temperature of 37° C. under controlled atmosphere (5% CO2 and 95% relative humidity). The aggregates were rinsed in buffered saline solution (PBS) and the cells were separated by incubation in a mixture of proteases (collagenase A, trypsin) with EDTA. A portion of the suspended cells was taken up in PBS for flow cytometry analysis. The cell count and autofluorescence are the two parameters measured. Autofluorescence is a direct parameter easily measured and used as a marker of cell senescence ([…] et al. 1982). The cell count is an indirect parameter of the growth potential of the hair follicle. Another portion of cells was used for analysis of the cell DNA content and ATP production rate. These two parameters were measured according to the suppliers' instructions (CyQuant NF Cell proliferation Assay Kit C35006, Invitrogen and Bioluminescence Assay Kit CLS II Roche 11699695001, Sigma-Aldrich).

[2] = system: fibroblasts from the papilla of human hair follicles; assay: Amount of DNA in papilla fibroblasts grown as aggregates; settings: capsaicin 10 μM
Experimental: as §1, with “Another portion of cells was used for analysis of the cell DNA content and ATP production rate.” left out

[3] = system: fibroblasts from the papilla of human hair follicles; assay: Flow cytometry of papilla fibroblasts grown as aggregates (number, granularity, autofluorescence); settings: capsaicin 10 μM; Control (EtOH) = 100
Experimental: as §1

[4] = system: Human follicles; assay: Ex vivo hair shaft elongation of cultured follicles; settings: capsaicin (10 μm)
Experimental: Materials and method: Human follicles were cultured ex vivo in complete growth medium containing 0.5 μg/ml insulin, and treated with capsaicin […]. The latter molecule is used as an agent causing slowing of follicle growth. A control condition without capsaicin treatment was produced. Capsaicin-sensitized follicles were treated or not with 0.03% (w/v) H. rhamnoides hydrolyzate. Each culture condition was evaluated on […] cultured in isolation (n=10). The follicles were incubated at 37° C. in the presence of 5% CO2. The culture medium was renewed three times a week for approximately 2 weeks. The elongation of the hair shafts of the cultured follicles was obtained from photographs taken on different days. The hair length was evaluated by image analysis (Image J) and presented in μm as a mean±standard error.

## COc1cc(CNC(=O)CCCC/C=C/C(C)C)ccc1O [Capsaicin, capsaicin]
[1]
  ATP production % Activity: −76%
  reduction of the production of ATP relative to the control (ethanol): 76%
[1]; EtOH control = 100
  ATP production MEAN: 24
[2]
  amount of DNA % deviation vs control: −77%
[2]; EtOH control = 100
  amount of DNA MEAN: 23
[3]
  Autofluorescence (%): 235%
  Granularity (%): 217%
  Number of cells (%): 28%
[4]; Day 0
  hair elongation MEAN (μm): 0 μm
[4]; Day 6
  hair elongation MEAN (μm): 806 μm
[4]; Day 8
  hair elongation MEAN (μm): 861 μm
[4]; Day 11
  hair elongation MEAN (μm): 869 μm
[4]; Day 13
  hair elongation MEAN (μm): 938 μm
[4]; Day 15
  hair elongation MEAN (μm): 936 μm
